Data published in patent US7858738B2, “Synthetic human peptides and pharmaceutical compositions comprising them for the treatment of systemic lupus erythematosus” (Yeda Research and Development Co., Ltd., priority 2001, dated 2010).

Experiments:
Assay type in all cases: cell-based
PBL of SLE patients [1] = experiment: TGF-β secretion by PBL of SLE patients stimulated with the human 16/6Id mAb (ELISA); details: for secretion of TGF-β by PBL: one representative SLE patient, FIG. 9; for Maximum Up-regulation % (TGF-β secretion): percent secretion above that with 16/6Id alone (mean 636 ± 25 pg/ml = 100%); for Up-regulation of TGF-β %: share of 19 SLE patients with up-regulation
Protocol: For this purpose, supernatants were removed from cultures of PBL of various SLE patients following 48 hours incubation with the human 16/6Id mAb in the absence or presence of the peptides hCDR1 or hCDR3. TGF-β was determined by ELISA according to the manufacturer's instructions. Briefly, Maxisorb plates (Nunc) were coated with recombinant human TGFβsRII/Fc chimera (R&D Systems) diluted in PBS (100 ng/ml). After blocking, cell supernatants were added. After 18 hours incubation the detecting biotinylated anti-human TGF-β antibody (R&D Systems) was added. The substrate solution used was the TMB Colour Reagent (Helix Diagnostics) and enzyme activity was evaluated by the MRX ELISA reader using the 570 nm and 630 nm filters.

PBL of SLE patients [2] = experiment: IL-2 secretion by PBL of SLE patients stimulated with the human 16/6Id mAb (CTLL line); details: for patients whose PBL IL-2 secretion was inhibited: 23 responders stimulated by the human 16/6Id; for Maximum inhibition % (IL-2 secretion): PBL of 23 responders; for Maximum inhibition % (IL-2 secretion) / Inhibitory Activity* % (IL-2 secretion): IL-2 secretion with 16/6 Id alone = 100%; for inhibition of the IL-2 secretion by PBL: PBL of one SLE patient, FIG. 8; for Inhibitory Activity* % (IL-2 secretion): share of 23 responders with inhibition of 50% or more
Protocol: It was of interest to find out whether the hCDR peptides are capable of inhibiting IL-2 secretion by PBL of SLE patients following stimulation with the human 16/6Id mAb. […] To this end, PBL of SLE patients were incubated with the human 16/6Id mAb in the absence or presence of the peptides hCDR1 or hCDR3. Supernatants of the cultures were collected following 48 hours of incubation. Assays to determine levels of IL-2 in the supernatants were performed using the CTLL IL-2 dependent line. Briefly, cells of the CTLL line (2×10^4/well) were incubated in the presence of the different supernatants for 24 hours, followed by the addition of ^3H-thymidine for an additional 18-hour incubation period. Cells were then harvested and radioactivity counted using a β-counter. Results were calculated based on recombinant human IL-2 used as a standard. The ability of the peptides to inhibit the IL-2 secretion of PBL of 23 responders stimulated by the human 16/6Id was tested. […] Inhibition of proliferative responses of PBL directly correlated with IL-2 inhibition by the CDR-based peptides.

PBL of SLE patients [3] = experiment: Proliferative response of PBL of SLE patients to the human 16/6Id mAb; details: for inhibition of the proliferative responses of PBL to the human 16/6Id mAb / inhibition of the proliferative responses of PBL to human 16/6Id mAb: PBL of one SLE patient; for inhibition of the proliferative responses of PBL to the human 16/6Id mAb: FIG. 6; for inhibition of the proliferative responses of PBL to human 16/6Id mAb: FIG. 7, reversed murine peptides as controls; for Percent Inhibition of proliferation of PBL: highest positive inhibition, peptide 50 or 100 μg/well; for Percent Inhibition of proliferation of PBL, Mean ± SD: mean over the 19 responder SLE patients (positive inhibitions, above 50%); for responders whose PBL proliferation was inhibited (inhibition above 50% considered positive): of the 19 responder SLE patients tested
Protocol: Induction and treatment of experimental SLE. In order to induce experimental SLE, BALB/c mice were immunized with 1-2 μg of the human mAb 16/6Id and boosted 3 weeks later. For the prevention of experimental SLE, mice were given hCDR1 or hCDR3 (mCDR1 or revmCDR1 as control peptide in Example 12) intravenously (i.v.) or s.c. concomitant with the immunization, and were injected weekly thereafter for 5 weeks. Treatment of an established disease started three and a half months following disease induction with the 16/6Id, when clinical manifestations were already observed. In Example 12, mice received 10 weekly injections (i.v. or s.c.) of mCDR1 or revmCDR1 at a dose of 100 μg/mouse. Prevention and treatment of SLE-like disease in (NZB×NZW)F1 mice with the hCDR1 or mCDR1 peptide. For prevention of SLE, mice at the age of 2 months, before disease manifestations are observed, were injected s.c. with hCDR1 (or mCDR1 in Example 12, 250 μg/mouse) once a week for 10 weeks. To treat an established disease, mice at the age of 5-7 months were injected with hCDR1 (in Example 12, mCDR1 s.c., 250 μg/mouse) once a week for 10 weeks. Proliferative Responses. PBL were isolated from heparinized venous blood by Ficoll-Hypaque (Pharmacia) density-gradient centrifugation. All assays were performed, in triplicate, in flat-bottomed microtiter plates (Falcon, Becton Dickinson, Oxmard, Calif., USA) in which 2×10^5 PBL were cultured in enriched RPMI-1640 as described (Dayan et al., 2000). The PBL were exposed to various concentrations (0.1-40 μg/well) of the human anti-DNA 16/6Id mAb with and without the addition of the various CDR-based peptides at a concentration of at least 10-fold excess over that of the 16/6Id. Phytohemagglutinin (PHA; 2 μg/well) was used as a control for culture conditions at each experiment. The cultures were incubated in 7.5% CO2 at 37° C. for 6 days. Eighteen hours before the cells were harvested, [^3H]-thymidine (0.5μ Ci of 5 Ci/mmol) (Nuclear Research Center, Negev, Israel) was added to all cultures. Results are expressed as the mean thymidine incorporation in counts per minute (CPM) of triplicate culture±SD, or as stimulation index (S.I.; the ratio of mean CPM at the optimal concentration of the human 16/6Id to the mean CPM in the presence of medium alone). A S.I.≧2 was considered a positive response (Dayan et al., 2000). Inhibition (the ratio of mean CPM in the presence of the 16/6Id and various CDR-based peptides to the mean CPM with the 16/6Id without the CDR-based peptide) above 50% was considered positive. Induction of Cytokine Production. Mice that were immunized with the human 16/6Id mAb and either treated or not with the CDR-based peptide, were killed at different periods during or after treatment with the peptide. Splenocytes and lymph node cells (LNC) were harvested and incubated (5×10^6/ml) in the presence of the 16/6Id. Supernatants were collected after 48 and 72 h. Assessment of Cytokines in the Supernatants. Supernatants were collected 48 hours following the initiation of the cultures and stored at −70° C. Measurements of IL-2, IL-10, IFN-γ, and TNF-α were performed by ELISA by using the relevant standards, capture and detecting Abs (Pharmingen) according to the manufacturer's instructions. TGF-β was determined by an ELISA. Briefly, plates were coated with the recombinant human TGF-β1 sRIII/Fc chimera (R & D Systems Inc., Minneapolis, Minn., USA), and the second Ab used was the biotinylated anti-human TGF-β1 antibody (R & D Systems Inc.). The substrate solution used was TMB color Reagent (Helix Diagnostics, West Sacramento, Calif.), and enzyme activity was evaluated by using 570- and 630-nm filters. Detection of SLE-Associated Clinical and Pathological Manifestations. Proteinuria was measured semiquantitatively by using Combistix kit (Ames Division, Bayer Diagnostics, Newbury, U.K.). White blood cells (WBC, for leukopenia) were counted after a 10-fold dilution of heparinized blood in distilled water containing 1% acetic acid (vol/vol). […]

Sequence | secretion of TGF-β by PBL (PBL of SLE patients [1]) | Maximum Up-regulation % (TGF-β secretion) (PBL of SLE patients [1]) [%] | Up-regulation of TGF-β % (PBL of SLE patients [1]) | patients whose PBL IL-2 secretion was inhibited (PBL of SLE patients [2]) | Maximum inhibition % (IL-2 secretion) (PBL of SLE patients [2]) [%] | inhibition of the IL-2 secretion by PBL (PBL of SLE patients [2]) [%] | Inhibitory Activity* % (IL-2 secretion) (PBL of SLE patients [2]) | inhibition of the proliferative responses of PBL to the human 16/6Id mAb (PBL of SLE patients [3]) | inhibition of the proliferative responses of PBL to human 16/6Id mAb (PBL of SLE patients [3]) | Percent Inhibition of proliferation of PBL (PBL of SLE patients [3]; SLE patient 1) [%] | Percent Inhibition of proliferation of PBL (PBL of SLE patients [3]; SLE patient 2 (M. D.)) [%] | Percent Inhibition of proliferation of PBL (PBL of SLE patients [3]; SLE patient 3) [%] | Percent Inhibition of proliferation of PBL (PBL of SLE patients [3]; SLE patient 4) [%] | Percent Inhibition of proliferation of PBL (PBL of SLE patients [3]; SLE patient 5) [%] | Percent Inhibition of proliferation of PBL (PBL of SLE patients [3]; SLE patient 6) [%] | Percent Inhibition of proliferation of PBL (PBL of SLE patients [3]; SLE patient 7) [%] | Percent Inhibition of proliferation of PBL (PBL of SLE patients [3]; SLE patient 8 (S. D.)) [%] | Percent Inhibition of proliferation of PBL (PBL of SLE patients [3]; SLE patient 9) [%] | Percent Inhibition of proliferation of PBL (PBL of SLE patients [3]; SLE patient 10) [%] | Percent Inhibition of proliferation of PBL (PBL of SLE patients [3]; SLE patient 11) [%] | also measured
GYYWSWIRQPPGKGEEWIG (Human) [hCDR1, 19-mer peptide based on the CDR1 of the heavy chain of the human 16/6Id mAb] | significant up-regulation | 305 ± 221 | 100 (19/19) % | 21/23 | 84 ± 31 | 100 | 91 (21/23) % | inhibited efficiently | did inhibit efficiently | 62 | 70 | 69 | <50 | 88.5 | 80 | 76 | 58 | 69.5 | 68.2 | <50 | Percent Inhibition of proliferation of PBL (PBL of SLE patients [3]; SLE patient 12): 82%; Percent Inhibition of proliferation of PBL (PBL of SLE patients [3]; SLE patient 13): 63%; Percent Inhibition of proliferation of PBL (PBL of SLE patients [3]; SLE patient 14): 56%; Percent Inhibition of proliferation of PBL (PBL of SLE patients [3]; SLE patient 15): 63%; Percent Inhibition of proliferation of PBL (PBL of SLE patients [3]; SLE patient 16): <50%; Percent Inhibition of proliferation of PBL (PBL of SLE patients [3]; SLE patient 17): 70.5%; Percent Inhibition of proliferation of PBL (PBL of SLE patients [3]; SLE patient 18): 51.5%; Percent Inhibition of proliferation of PBL (PBL of SLE patients [3]; SLE patient 19): 63%; Percent Inhibition of proliferation of PBL, Mean ± SD (PBL of SLE patients [3]): 68.12 ± 9.57%; responders whose PBL proliferation was inhibited (inhibition above 50% considered positive) (PBL of SLE patients [3]): 84.2%
YYCARGLLRGGWNDVDYYGMDV (Human) [hCDR3, peptide based on the CDR3 of the heavy chain of the human 16/6Id mAb] | significant up-regulation | 338 ± 242 | 100 (19/19) % | 19/23 | 78 ± 34 | 100 | 83 (19/23) % | inhibited efficiently | did inhibit efficiently | <50 | 75 | <50 | <50 | 87.5 | 80 | 70.4 | 56 | 65 | 71.8 | 72 | Percent Inhibition of proliferation of PBL (PBL of SLE patients [3]; SLE patient 12): 86%; Percent Inhibition of proliferation of PBL (PBL of SLE patients [3]; SLE patient 13): 64%; Percent Inhibition of proliferation of PBL (PBL of SLE patients [3]; SLE patient 14): 74%; Percent Inhibition of proliferation of PBL (PBL of SLE patients [3]; SLE patient 15): 69%; Percent Inhibition of proliferation of PBL (PBL of SLE patients [3]; SLE patient 16): 68%; Percent Inhibition of proliferation of PBL (PBL of SLE patients [3]; SLE patient 17): 77.8%; Percent Inhibition of proliferation of PBL (PBL of SLE patients [3]; SLE patient 18): <50%; Percent Inhibition of proliferation of PBL (PBL of SLE patients [3]; SLE patient 19): 60.8%; Percent Inhibition of proliferation of PBL, Mean ± SD (PBL of SLE patients [3]): 71.82 ± 8.44%; responders whose PBL proliferation was inhibited (inhibition above 50% considered positive) (PBL of SLE patients [3]): 78.9%
